The values that follow come from patent US20250144067A1, “PERSONALIZED STARVATION THERAPY FOR CANCER” (Faeth Therapeutics, Inc., priority 2021, published 2025).

Counter-ions that a name gives are not always drawn. Like-named read-outs stand apart in the source and are kept apart here.

Assay [1] relates to NCI-H292 lung cancer cells. The experiment in a line: FDA drug screening, complete media vs cholesterol-free media without statin (TABLE 1). The format is cell-based, human.
The test system of assay [2] is NCI-H292 lung cancer cells. The experiment in a line: FDA drug screening, complete media vs cholesterol-free media with simvastatin (TABLE 2). The format is cell-based, human.
Setting [3] is: Complete minus Cholesterol-free, greater than 0 enhanced anti-cancer activity, about 0 neutral, below 0 antagonist.
Where [4] appears, read: NCI-H292 cells, FDA drug library screen, cholesterol-free media without statin.
[5] abbreviates: NCI-H292 cells, FDA drug library screen, complete media.
The mark [6] stands for this setting: NCI-H292 cells, cholesterol-free media with simvastatin 0.04 μM, cell growth value in FDA drug screen.
Setting [7] is: NCI-H292 cells, complete media, cell growth value in FDA drug screen.
Where [8] appears, read: complete media minus cholesterol-free media + simvastatin, >0 enhanced anti-cancer activity, about 0 neutral, <0 antagonist.
Where [9] appears, read: Complete minus Cholesterol-free, >0 enhanced anti-cancer activity, about 0 neutral, <0 antagonist.
The mark [10] stands for this setting: NCI-H292 cells, cholesterol-free media without statin, FDA drug library screen.
Where [11] appears, read: NCI-H292 cells, cholesterol-free media with simvastatin 0.04 μM, FDA drug library screen (TABLE 2).
[12] abbreviates: NCI-H292 cells, complete media, FDA drug library screen (TABLE 2).
Where [13] appears, read: complete media minus cholesterol-free media + simvastatin (0.04 μM), >0 enhanced anti-cancer activity, about 0 neutral, <0 antagonist.
Setting [14] is: NCI-H292 cells, complete media, FDA drug library screen.
[15] abbreviates: complete vs cholesterol-free media, >0 enhanced anti-cancer activity, about 0 neutral, <0 antagonist.
Setting [16] is: NCI-H292 cells, FDA drug library screen, cholesterol-free media with simvastatin 0.04 μM.
[17] abbreviates: NCI-H292 cells, drug in cholesterol-free media with simvastatin 0.04 μM.
Where [18] appears, read: NCI-H292 cells, drug in complete media.
Where [19] appears, read: complete media vs cholesterol-free media + simvastatin (0.04 μM), >0 enhanced anti-cancer activity, about 0 neutral, <0 antagonist.
The mark [20] stands for this setting: NCI-H292 cells, FDA library drug in cholesterol-free media with simvastatin 0.04 μM.
Where [21] appears, read: NCI-H292 cells, FDA library drug in complete media.
Setting [22] is: Complete minus Cholesterol-free, […].
Where [23] appears, read: complete media minus cholesterol-free media + simvastatin (0.04 μM), […].
[24] abbreviates: Complete minus Cholesterol-free, greater than 0 enhanced anti-cancer activity, about 0 neutral, below 0 antagonists.
[25] abbreviates: NCI-H292 cells in cholesterol-free media without statin.
Setting [26] is: NCI-H292 cells in complete media.

Consider `CN(C)c1ccc2nc3ccc(=[N+](C)C)cc-3sc2c1` [Methylene blue (trihydrate)], for which the Difference in assay [1] (setting [3]) is −0.18; in assay [2] (setting [8]), 0.05. In assay [1] (setting [4]), the Cholesterol-free was 0.4339. The Complete in assay [1] (setting [5]) was 0.2574. Further, the “Cholesterol-free media + simvastatin (0.04 μM)” value in assay [2] (setting [6]) is reported as 0.3366. The “Complete Media” value in assay [2] (setting [7]) is 0.39.
Take `CS(=O)(=O)c1ccc(C(=O)Nc2ccc(Cl)c(-c3ccccn3)c2)c(Cl)c1` [Vismodegib]: the Difference in assay [1] (setting [9]) is listed as −0.05; in assay [2] (setting [13]) it was −0.04. The molecule also gave a Cholesterol-free in assay [1] (setting [10]) of 1.219. The “Cholesterol-free media + simvastatin (0.04 μM)” value in assay [2] (setting [11]) came out at 1.089. In addition, the “Complete Media” value in assay [2] (setting [12]) stood at 1.052.
Turning to `CC1(C)S[C@@H]2[C@H](NC(=O)[C@H](N)c3ccc(O)cc3)C(=O)N2[C@H]1C(=O)O` [Amoxicillin (trihydrate)], the Cholesterol-free in assay [1] (setting [10]) turned out to be 0.8623. Also, the Complete in assay [1] (setting [14]) stood at 0.9771. The Difference in assay [1] (setting [15]) is 0.11; in assay [2] (setting [8]) it was 0.25. The “Cholesterol-free media + simvastatin (0.04 μM)” value in assay [2] (setting [16]) is reported as 0.7666. Further, the “Complete Media” value in assay [2] (setting [5]) came to 1.02.
For the molecule `Nc1ncnc2c1ncn2[C@@H]1O[C@H](COP(=O)(O)OP(=O)(O)OP(=O)(O)O)[C@@H](O)[C@H]1O` [ATP], the Difference in assay [1] (setting [3]) was −0.10; in assay [2] (setting [19]), −0.24. For the same molecule, the Cholesterol-free in assay [1] (setting [4]) is listed as 1.57. In assay [1] (setting [5]), this molecule came in with a Complete of 1.466. Besides, the “Cholesterol-free media + simvastatin (0.04 μM)” value in assay [2] (setting [17]) is 1.049. Besides, the “Complete Media” value in assay [2] (setting [18]) was determined as 0.8041.
Turning to `COc1cc2c(cc1OC)C(=O)C(CC1CCN(Cc3ccccc3)CC1)C2` (stereo not drawn) [Donepezil], the figures for the Difference in assay [1] (setting [9]) and in assay [2] (setting [8]) were 0.03 and 0.61, respectively. For the same molecule, the Cholesterol-free in assay [1] (setting [10]) amounted to 0.9537. Also, the Complete in assay [1] (setting [14]) was 0.9881. The “Cholesterol-free media + simvastatin (0.04 μM)” value in assay [2] (setting [16]) came to 1.009. Besides, the “Complete Media” value in assay [2] (setting [5]) was 1.62.
On to `C[S+](C)CCC(N)C(=O)O.[Cl-]` (racemic) [DL-Methionine methylsulfonium (chloride)], for which the Difference is reported as −0.16 in assay [1] (setting [3]) and −0.29 in assay [2] (setting [19]). In assay [1] (setting [4]), this molecule returned a Cholesterol-free of 1.102. The Complete in assay [1] (setting [5]) was determined as 0.9454. Moreover, the “Cholesterol-free media + simvastatin (0.04 μM)” value in assay [2] (setting [20]) turned out to be 1.182. For the same molecule, the “Complete Media” value in assay [2] (setting [21]) is 0.8884.
With `CCc1ccc(C(=O)C(C)CN2CCCCC2)cc1` (stereo not drawn) [Eperisone (Hydrochloride)], the Difference in assay [1] (setting [3]) is −0.09; in assay [2] (setting [19]), −0.10. The molecule further registered a Cholesterol-free in assay [1] (setting [4]) of 0.978. Further, in assay [1] (setting [5]), the Complete was 0.8889. Moreover, the “Cholesterol-free media + simvastatin (0.04 μM)” value in assay [2] (setting [16]) is listed as 1.323. In assay [2] (setting [5]), the “Complete Media” value amounted to 1.222.
As to `CC(C)[C@]12O[C@H]1[C@@H]1O[C@]13[C@]1(O[C@H]1C[C@H]1C4=C(CC[C@@]13C)C(=O)OC4)[C@@H]2O` [Triptolide], the results for the Difference in assay [1] (setting [22]) and in assay [2] (setting [23]) were −0.01 and −0.03, respectively. This molecule also showed a Cholesterol-free in assay [1] (setting [10]) of 0.04113. In assay [1] (setting [14]), the Complete stood at 0.03049. For the same molecule, the “Cholesterol-free media + simvastatin (0.04 μM)” value in assay [2] (setting [11]) stood at 0.007136. The “Complete Media” value in assay [2] (setting [12]) was −0.02177.
As for `O=C1Nc2ccccc2/C1=C1/Nc2ccccc2C1=O` [Indirubin], the Difference is reported as −0.04 in assay [1] (setting [9]) and −0.27 in assay [2] (setting [19]). In assay [1] (setting [10]), the Cholesterol-free was 0.7727. The molecule further had a Complete in assay [1] (setting [14]) of 0.7337. Moreover, the “Cholesterol-free media + simvastatin (0.04 μM)” value in assay [2] (setting [20]) came out at 0.8483. In assay [2] (setting [21]), the “Complete Media” value is on record as 0.5782.
Take Bismuth subgallate: the Difference in assay [1] (setting [22]) is −0.19; in assay [2] (setting [23]), −0.05. In addition, the Cholesterol-free in assay [1] (NCI-H292 cells, cholesterol-free media without statin) stood at 1.126. Further, the “Cholesterol-free media + simvastatin (0.04 μM)” value in assay [2] (setting [11]) worked out at 1.033. Also, the “Complete Media” value in assay [2] (setting [12]) came to 0.9832.
In assay [1] (setting [10]), `N=C(N)NC(=O)c1nc(Cl)c(N)nc1N` [Amiloride hydrochloride dihydrate] yielded a Cholesterol-free of 0.9043. In assay [1] (setting [14]), this molecule showed a Complete of 1.06. The Difference in assay [1] (setting [15]) is 0.16; in assay [2] (setting [19]), −0.16. Also, the “Cholesterol-free media + simvastatin (0.04 μM)” value in assay [2] (setting [17]) turned out to be 1.232. In assay [2] (setting [18]), the “Complete Media” value is recorded as 1.07.
Consider Econazole (nitrate), for which the Difference in assay [1] (setting [3]) is on record as −0.13; in assay [2] (setting [8]) it was 0.88. This molecule also gave a Cholesterol-free in assay [1] (setting [4]) of 0.9667. This molecule came in with a Complete in assay [1] (setting [5]) of 0.8375. For the same molecule, the “Cholesterol-free media + simvastatin (0.04 μM)” value in assay [2] (setting [16]) was 0.1971.
As to `O=C(O)C[C@@H]1CC[C@H](NC(=O)Cc2cccs2)B(O)O1` [Vaborbactam], the Difference in assay [1] (setting [9]) was 0.06; in assay [2] (setting [13]) it was 0.00. In assay [1] (setting [10]), this molecule returned a Cholesterol-free of 0.9017. In assay [1] (setting [14]), the Complete is recorded as 0.9648. The “Cholesterol-free media + simvastatin (0.04 μM)” value in assay [2] (setting [11]) was 0.8544. Further, the “Complete Media” value in assay [2] (setting [12]) is on record as 0.8532.
Take `CC1(C)NC(=O)N(c2ccc([N+](=O)[O-])c(C(F)(F)F)c2)C1=O` [Nilutamide]: the figures for the Difference in assay [1] (setting [24]) and in assay [2] (setting [19]) were −0.63 and −0.47, respectively. In assay [1] (setting [25]), this molecule displayed a Cholesterol-free of 1.565. The molecule also gave a Complete in assay [1] (setting [26]) of 0.9342. For the same molecule, in assay [2] (setting [20]), the “Cholesterol-free media + simvastatin (0.04 μM)” value turned out to be 1.474. Also, the “Complete Media” value in assay [2] (setting [21]) was 1.003.
Turning to `CC(=O)C1CCC2C3CC=C4CC(OS(=O)(=O)O)CCC4(C)C3CCC12C` (stereo not drawn) [Pregnenolone monosulfate], the Difference in assay [1] (setting [22]) is reported as −0.11; in assay [2] (setting [23]), −0.05. This molecule also displayed a Cholesterol-free in assay [1] (setting [4]) of 1.032. The same molecule came in with a Complete in assay [1] (setting [5]) of 0.9202. In assay [2] (setting [11]), the “Cholesterol-free media + simvastatin (0.04 μM)” value is given as 1.305. Further, the “Complete Media” value in assay [2] (setting [12]) stood at 1.254.
Take `COC(=O)[C@@H]1[C@H]2C[C@H]3c4[nH]c5ccccc5c4CCN3C[C@@H]2CC[C@@H]1O` [Yohimbine (Hydrochloride)]: the Difference is −0.74 in assay [1] (setting [24]) and 0.02 in assay [2] (setting [8]). The same molecule came in with a Cholesterol-free in assay [1] (setting [25]) of 1.558. The molecule also displayed a Complete in assay [1] (setting [26]) of 0.818. For the same molecule, in assay [2] (setting [6]), the “Cholesterol-free media + simvastatin (0.04 μM)” value was found to be 1.051. Also, the “Complete Media” value in assay [2] (setting [7]) worked out at 1.067.
As to `S=P(N1CC1)(N1CC1)N1CC1` [Thio-TEPA], in assay [1], the Cholesterol-free is given as 0.9267, the Complete is on record as 0.7941 and the Difference is listed as −0.13. In assay [2], the “Cholesterol-free media + simvastatin (0.04 μM)” value was 0.6864, the “Complete Media” value was 0.8177 and the Difference is given as 0.13.
As for `CC/C=C\C/C=C\C/C=C\C/C=C\C/C=C\CCCC(=O)O` [Eicosapentaenoic Acid], the Difference in assay [1] (setting [3]) is recorded as −0.10; in assay [2] (setting [8]), 0.34. Further, the Cholesterol-free in assay [1] (setting [4]) was 1.072. In assay [1] (setting [5]), this molecule gave a Complete of 0.969. For the same molecule, the “Cholesterol-free media + simvastatin (0.04 μM)” value in assay [2] (setting [16]) was determined as 1.13. Further, the “Complete Media” value in assay [2] (setting [5]) is 1.471.
With `CC(=O)OC(C)C[N+](C)(C)C.[Cl-]` (stereo not drawn) [Methacholine (chloride)], the Difference is given as −0.15 in assay [1] (setting [3]) and −0.05 in assay [2] (setting [13]). In assay [1] (setting [4]), this molecule yielded a Cholesterol-free of 1.05. This molecule also registered a Complete in assay [1] (setting [5]) of 0.8971. For the same molecule, the “Cholesterol-free media + simvastatin (0.04 μM)” value in assay [2] (setting [11]) was determined as 1.245. Also, the “Complete Media” value in assay [2] (setting [12]) was 1.195.
